# Laboratory results as given in ChEMBL document CHEMBL5260858, “Targeting mycobacterial membranes and membrane proteins: Progress and limitations” (Bioorg Med Chem, 2023).
# Assays:
# [1] = system: Mycobacterium tuberculosis; experiment: Antitubercular activity against Mycobacterium tuberculosis H37Rv assessed as bacterial growth inhibition; type: functional
# [2] = system: Mycobacterium tuberculosis; experiment: Antitubercular activity against Mycobacterium tuberculosis assessed as bacterial growth inhibition; type: functional
# [3] = system: Mycobacterium tuberculosis; experiment: Antitubercular activity against Mycobacterium tuberculosis H37Rv assessed as bacterial growth inhibition and measured upto 14 days by microplate alamar blue assay; type: functional; conditions: 336 h, time <= 14 day
# [4] = system: Mycobacterium tuberculosis; experiment: Antimycobacterial activity against Mycobacterium tuberculosis H37Rv assessed as bacterial growth inhibition incubated for 1 week by resazurin reduction microplate assay; type: functional; conditions: 168 h, time 1 weeks
# [5] = molecular target: T1, Decaprenylphosphoryl-beta-D-ribose oxidase (Mycobacterium tuberculosis (strain ATCC 25618 / H37Rv), UniProt P9WJF1); experiment: Inhibition of Mycobacterium tuberculosis H37Rv DprE1 assessed as formation of resorufin using farnesyl-phosphoryl-beta-D-ribofuranose by AmplexRed reagent based fluorescence assay
# T1 sequence (P9WJF1 whole entry): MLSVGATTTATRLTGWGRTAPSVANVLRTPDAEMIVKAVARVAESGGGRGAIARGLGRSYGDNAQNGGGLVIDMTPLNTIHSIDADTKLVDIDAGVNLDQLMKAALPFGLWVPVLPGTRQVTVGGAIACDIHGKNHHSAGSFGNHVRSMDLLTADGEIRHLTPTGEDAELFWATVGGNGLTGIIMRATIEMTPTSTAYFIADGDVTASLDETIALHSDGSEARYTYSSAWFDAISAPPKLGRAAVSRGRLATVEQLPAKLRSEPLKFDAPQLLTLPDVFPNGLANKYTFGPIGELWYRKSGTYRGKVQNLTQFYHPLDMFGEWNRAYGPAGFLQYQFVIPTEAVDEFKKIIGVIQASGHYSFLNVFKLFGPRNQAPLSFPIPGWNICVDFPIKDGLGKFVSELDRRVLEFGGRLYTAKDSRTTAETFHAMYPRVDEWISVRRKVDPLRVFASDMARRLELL
# [6] = system: Mycobacterium tuberculosis; experiment: In vivo antimycobacterial activity against Mycobacterium tuberculosis H37Rv infected in BALB/c mouse assessed as reduction in log10 CFU in lungs at 50 mg/kg, po and measured after 4 weeks; type: functional
# [7] = system: Mycobacterium tuberculosis; experiment: In vivo antimycobacterial activity against Mycobacterium tuberculosis H37Rv infected in BALB/c mouse assessed as reduction in log10 CFU in lungs at 12.5 mg/kg, po and measured after 4 weeks; type: functional
# [8] = system: Mycobacterium tuberculosis; experiment: Antitubercular activity against Mycobacterium tuberculosis H37Rv assessed as bacterial growth inhibition by REMA analysis; type: functional
# [9] = system: Mycobacterium tuberculosis; experiment: Antitubercular activity against Mycobacterium tuberculosis H37Rv assessed as bacterial growth inhibition incubated for 7 days by resazurin reduction microplate assay; type: functional; conditions: 168 h, time 7 day
# [10] = system: Mycobacterium tuberculosis; experiment: Antitubercular activity against Mycobacterium tuberculosis H37Rv infected in human THP-1 cells assessed as bacterial growth inhibition incubated for 48 hrs by PrestoBlue staining based fluorescence analysis; type: functional, organism-based; conditions: THP-1, 48 h
# [11] = system: Mycobacterium tuberculosis; experiment: Antitubercular activity against Mycobacterium tuberculosis H37Rv expressing GFP assessed as bacterial growth inhibition by measuring GFP fluorescence incubated for 72 hrs by fluorescence analysis; type: functional
# [12] = system: Mycobacterium tuberculosis; experiment: Antitubercular activity against Mycobacterium tuberculosis H37Rv assessed as bacterial growth inhibition incubated for 24 hrs by [14C]-acetate labelling based radiometric analysis; type: functional
# [13] = system: Mycobacterium tuberculosis; experiment: Antitubercular activity against Mycobacterium tuberculosis H37Rv assessed as bacterial growth inhibition incubated for 6 days by resazurin reduction microplate assay; type: functional; conditions: 144 h, time 6 day
# [14] = system: Mycobacterium tuberculosis; experiment: Antitubercular activity against Mycobacterium tuberculosis H37Rv infected in BALB/c mouse assessed as reduction in bacterial load at 100 mg/kg, po for 10 days by CFU analysis; type: functional; conditions: time 10 day
# [15] = system: Mycobacterium tuberculosis; experiment: Antitubercular activity against Mycobacterium tuberculosis H37Rv assessed as bacterial growth inhibition incubated for 6 days by resazurin based fluorescence assay; type: functional; conditions: 144 h, time 6 day
# [16] = system: Mycobacterium tuberculosis; experiment: Antitubercular activity against Mycobacterium tuberculosis H37Rv infected in human HepG2 cells assessed as reduction in colony forming unit by CFU analysis; type: functional, organism-based
# [17] = system: Mycobacterium tuberculosis; experiment: Antitubercular activity against Mycobacterium tuberculosis H37Rv infected in human HepG2 cells assessed as bacterial growth inhibition incubated for 4 weeks by resazurin reduction microtiter assay; type: functional, organism-based; conditions: HepG2, 672 h
# [18] = system: Mycobacterium tuberculosis; experiment: Antitubercular activity against Mycobacterium tuberculosis H37Rv ATCC25618 assessed as bacterial growth inhibition incubated for 6 days by resazurin based fluorescence analysis; type: functional; conditions: H37Rv ATCC25618, 144 h, time 6 day
# [19] = system: Mycobacterium tuberculosis; experiment: Antitubercular activity against Mycobacterium tuberculosis H37Rv assessed as bacterial growth inhibition incubated for 14 days by agar plate method; type: functional; conditions: 336 h, time 14 day
# [20] = system: Mycobacterium tuberculosis; experiment: Antitubercular activity against Mycobacterium tuberculosis mc2 7000 assessed as bacterial growth inhibition incubated for 6 days by resazurin based fluorescence assay; type: functional; conditions: mc2 7000, 144 h, time 6 day
# [21] = system: Mycobacterium tuberculosis; experiment: Antimycobacterial activity against Mycobacterium tuberculosis H37Rv assessed as bacterial growth inhibition incubated for 6 days by resazurin dye based assay; type: functional; conditions: 144 h, time 6 day
# [22] = system: Mycobacterium tuberculosis; experiment: Antitubercular activity against Mycobacterium tuberculosis H37Rv assessed as bacterial growth inhibition by microdilution method; type: functional
compound,measurement,setting,value
CCCCCCCCn1cc(CN2CCCCCC2)c2c(F)cccc21,MIC50,[1],2.3 µM
CN1CCN(CCCN2c3ccccc3Sc3ccc(C(F)(F)F)cc32)CC1 [TRIFLUOPERAZINE],MIC,[2],5 µg/mL
Cc1cc(C)c2cc(C(=O)NC3CCCCCC3)[nH]c2c1,MIC,[3],0.0156 µg/mL
C[C@H]1COC2(CCN(c3nc(=O)c4cc(C(F)(F)F)cc(-n5cccc5)c4s3)CC2)O1,MIC,[4],0.35 µM
same,IC50,[5],< 8 µM
CC1(C)CCC(NC(=O)c2cc3c(Cl)cc(Cl)cc3[nH]2)CC1,Activity,[6],3.82 log10CFU
same,Activity,[7],1.24 log10CFU
O=c1nc(N2CCN(CCCCOc3ccccc3)CC2)sc2c([N+](=O)[O-])cc(C(F)(F)F)cc12,MIC,[8],0.0015 µg/mL
CCSc1nc(NC)c2cccc(F)c2n1,MIC,[9],0.04 µg/mL
same,IC50,[10],0.013 µg/mL
CCc1nc2ccc(Cl)cn2c1C(=O)NCc1ccc(N2CCC(c3ccc(OC(F)(F)F)cc3)CC2)cc1 [TELACEBEC],MIC,[1],0.0027 µM
CCCn1cnc2cc(NCc3ccc(Cl)cc3Cl)ccc21,IC90,[11],16 µM
CCc1ccc([C@H]2C[C@@H](C(F)(F)F)n3ncc(C(=O)NCc4ccc5c(c4)OCO5)c3N2)cc1,MIC,[12],0.16 µM
O=C(/C=C/c1ccccc1)N1CCN(Cc2ccc3c(c2)OCO3)CC1,MIC,[13],0.2 µg/mL
same,Activity,[14],0.9 log10CFU
same,IC50,[10],0.3 µg/mL
Cc1cc(C)c2cc(C(=O)NC3CCCCCCC3)[nH]c2c1,MIC,[3],0.0039 µg/mL
O=c1nc(N2CCN(CC3CCCCC3)CC2)sc2c(-n3cccc3)cc(C(F)(F)F)cc12,MIC,[4],0.34 µM
same,IC50,[5],< 8 µM
O=c1c(NCc2ccccn2)c(-c2ccc(N3CCOCC3)cc2)c1=O,MIC,[1],0.016 µg/mL
c1cc2c(s1)CCOC21CCN(Cc2ccc3c(c2)OCCO3)CC1,MIC,[15],0.38 µM
Clc1ccc2c(c1)N(CCC[P+](c1ccccc1)(c1ccccc1)c1ccccc1)c1ccccc1S2.[Cl-],MIC,[2],1 µg/mL
CCOC(=O)c1nc2ccc(C(F)(F)F)cc2nc1NCc1ccc(OC)cc1,MIC99,[8],3.1 µM
same,IC50,[16],6.1 µM
O=C(/C=C/c1ccsc1)N1CCN(Cc2ccc3c(c2)OCO3)CC1,IC50,[17],0.3 µg/mL
same,MIC,[13],0.1 µg/mL
CCCc1ccc(NC(=O)COc2cc(C)nc3ccc(OC)cc23)cc1,MIC,[18],0.02 µg/mL
CCc1ccc([C@H]2C[C@@H](C(F)(F)F)n3ncc(C(=O)NCc4ccc(F)cc4)c3N2)cc1,MIC,[12],0.16 µM
Cc1cc2oc(=O)cc(-c3ccccc3)c2c(C)c1-c1ccc(CN2CCOCC2)cc1,MIC,[19],0.42 µM
O=c1nc(N2CCN(CCCCc3ccccc3)CC2)sc2c([N+](=O)[O-])cc(C(F)(F)F)cc12,MIC,[8],0.00035 µg/mL
CCOc1ccc(CNc2nc3cc(C(F)(F)F)ccc3nc2C(=O)O)cc1,MIC99,[8],3.1 µM
O=C(/C=C/c1cscn1)N1CCN(Cc2ccc3c(c2)OCO3)CC1,MIC,[13],0.1 µg/mL
same,Activity,[14],0.6 log10CFU
same,IC50,[10],0.2 µg/mL
CCSc1nc(NC)c2ccccc2n1,MIC,[9],0.09 µg/mL
same,IC50,[10],0.012 µg/mL
CCOC(=O)c1c(-c2ccccc2)oc2ccc(O)c(CN3CCC(C)CC3)c12,MIC,[20],2.3 µM
CCS(=O)(=O)N1CCN(c2nc(=O)c3cc(C(F)(F)F)cc([N+](=O)[O-])c3s2)CC1,MIC,[21],0.003 µg/mL
FC(F)(F)c1ccc2c(c1)N(CCC[P+](c1ccccc1)(c1ccccc1)c1ccccc1)c1ccccc1S2.[Cl-],MIC50,[1],1 µg/mL
CN(C)CCCN1c2ccccc2Sc2ccc(Cl)cc21 [CHLORPROMAZINE],MIC,[2],25 µg/mL
COC(=O)c1c(NC(=O)c2c(F)c(F)c(F)c(F)c2F)sc(C(N)=O)c1C,MIC,[22],0.5 µM
CC1(C)CCC(NC(=O)c2cc3c(F)cc(F)cc3[nH]2)CC1,Activity,[6],3.4 log10CFU
same,Activity,[7],0.9 log10CFU
